Measurements taken from paper PMC11693670 (Frontiers in Fungal Biology, 2024).
Ends that are not written are not given here.

Columns and labels:
C. neoformans (KN99α) = settings: 96 h
Experimental: C. neoformans and C. auris plates were incubated at 37°C and 5% CO2 for 96 hours after introduction of peptide and read at OD 600nm every 24 hours. […] MICs were determined for suspected positive hits against C. neoformans and C. albicans grown under the conditions previously described with approximately 500 fungal cells per well. […] C. neoformans plates were incubated at 37°C and 5% CO2 for 96 hours after introduction of peptide and read at OD 600nm every 24 hours. […] MICs were determined by approximately 50% inhibition of fungal growth, meaning that fungal growth as measured by OD was reduced 50% by peptide treatment relative to vehicle control.
Percent inhibition was calculated as the reduction
in OD at 600nm following peptide treatment relative to vehicle control. The average of six
replicates was used for each peptide concentration treatment and vehicle control.

C. neoformans = assay: Fungicidal/fungistatic tests; assay type: cell-based, Cryptococcus neoformans; set-up: key: Presence (+); absence (–); settings: 5 µL plated on YPD agar, 30°C, visual inspection, six replicates
Experimental: Fungicidal/fungistatic tests were conducted with the four especially effective syn-enterocin peptides. C. neoformans was grown at 30°C in YPD overnight to an OD between 0.5 and 1.2 at 600 nm, then the C. neoformans culture was diluted to 10^5 and 10^3 fungal cells per well on a 96-well plate. Each well was treated with peptide at 16 µM before 5 µL per well was transferred onto YPD agar plates. Dilutions to reach desired cell counts were done in YPD. Six replicates of each peptide/dilution combination were plated. Plates were incubated at 30°C for 72 hours. Fungal growth was determined by visual inspection, with presence or absence of fungal growth being recorded (individual colonies were absent or overgrown and thus uncountable).

Molecule | MIC against C. neoformans (C. neoformans (KN99α)) [µM] | Presence or absence of fungal growth at 72 hrs (C. neoformans; cell count 10^3, treatment 16 μM) | Presence or absence of fungal growth at 72 hrs (C. neoformans; cell count 10^5, treatment 16 μM)
AGWERIAKELKKYIKKGKKVIRAAW [Peptide 32] | 2 |  | 
OC(Cn1cncn1)(Cn1cncn1)c1ccc(F)cc1F [Fluconazole] |  | – | –
